Source: ChEMBL document CHEMBL4373744, “Modifying the lipophilic part of phenylthiazole antibiotics to control their drug-likeness” (Eur J Med Chem, 2020)
In brackets after ≈: the same amount, converted by molar mass.

Experiments:
Escherichia coli [1] = experiment: Antimicrobial activity against Escherichia coli JW55031 harboring deltatolC mutant by broth liquid microdilution method; type: functional
Escherichia coli [2] = experiment: Antimicrobial activity against Escherichia coli BW25113 by broth liquid microdilution method; type: functional
Staphylococcus aureus = experiment: microbe, parasite or virus in culture; conditions: NRS384
Description: Antimicrobial activity against methicillin-resistant Staphylococcus aureus NRS384 by broth liquid microdilution method

Compound	MIC (Escherichia coli [1]) [µg/mL]	MIC (Escherichia coli [2]) [µg/mL]	MIC (Staphylococcus aureus) [µg/mL]
C/C(=N\NC(=N)N)c1sc(-c2ccc(OCCCCN3CCCC(C)C3)cc2)nc1C (stereo not given)	> 64	> 64	> 64
C/C(=N\NC(=N)N)c1sc(-c2ccc(OCCCCN3CCCCC3)cc2)nc1C	> 64	> 64	> 64
C/C(=N\NC(=N)N)c1sc(-c2ccc(OCCCCCN3CCC(C)CC3)cc2)nc1C	64 (≈ 140 µM)	> 64	32 (≈ 70.1 µM)
C/C(=N\NC(=N)N)c1sc(-c2ccc(OCCCCN3CCOCC3)cc2)nc1C	> 64	> 64	> 64
C/C(=N\NC(=N)N)c1sc(-c2ccc(OCCCCCN3CCCCC3)cc2)nc1C	16 (≈ 36.1 µM)	> 64	16 (≈ 36.1 µM)
C/C(=N\NC(=N)N)c1sc(-c2ccc(OCCCN3CCCC(C)C3)cc2)nc1C (stereo not given)	> 64	> 64	64 (≈ 149 µM)
C/C(=N\NC(=N)N)c1sc(-c2ccc(OCCCCN3CCSCC3)cc2)nc1C	> 64	> 64	> 64
C/C(=N\NC(=N)N)c1sc(-c2ccc(OCCCCN3CCC(C)CC3)cc2)nc1C	32 (≈ 72.3 µM)	> 64	32 (≈ 72.3 µM)
C/C(=N\NC(=N)N)c1sc(-c2ccc(OCCCCCN3CCCCC3C)cc2)nc1C (stereo not given)	32 (≈ 70.1 µM)	> 64	32 (≈ 70.1 µM)
C/C(=N\NC(=N)N)c1sc(-c2ccc(C#CCCN3CCCC(C)C3)cc2)nc1C (stereo not given)	64 (≈ 151 µM)	> 64	8 (≈ 18.9 µM)
C/C(=N\NC(=N)N)c1sc(-c2ccc(OCCCCCN3CCC4CCCCC4C3)cc2)nc1C (stereo not given)	> 64	> 64	> 64
C/C(=N\NC(=N)N)c1sc(-c2ccc(OCCCCCN3CCCCCC3)cc2)nc1C	> 64	> 64	> 64
C/C(=N\NC(=N)N)c1sc(-c2ccc(OCCCn3ccnc3)cc2)nc1C	> 64	> 64	32 (≈ 80.5 µM)
C/C(=N\NC(=N)N)c1sc(-c2ccc(C#CCCN3CCC4CCCCC4C3)cc2)nc1C (stereo not given)	> 64	> 64	> 64
C/C(=N\NC(=N)N)c1sc(-c2ccc(OCCCCCN3CCOCC3)cc2)nc1C	32 (≈ 72 µM)	> 64	32 (≈ 72 µM)
C/C(=N\NC(=N)N)c1sc(-c2ccc(OCCCCCN3CCCC3)cc2)nc1C	> 64	> 64	> 64
C/C(=N\NC(=N)N)c1sc(-c2ccc(OCCCN3CCCC3)cc2)nc1C	32 (≈ 79.9 µM)	> 64	16 (≈ 39.9 µM)
C/C(=N\NC(=N)N)c1sc(-c2ccc(C#CCCN3CCCCC3)cc2)nc1C	32 (≈ 78.3 µM)	> 64	8 (≈ 19.6 µM)
C/C(=N\NC(=N)N)c1sc(-c2ccc(C#CCCN3CCN(C)CC3)cc2)nc1C	32 (≈ 75.5 µM)	> 64	16 (≈ 37.8 µM)
C/C(=N\NC(=N)N)c1sc(-c2ccc(OCCCN3CCN(C)CC3)cc2)nc1C	> 64	> 64	> 64
C/C(=N\NC(=N)N)c1sc(-c2ccc(OCCCCn3ccnc3)cc2)nc1C	32 (≈ 77.8 µM)	> 64	16 (≈ 38.9 µM)
C/C(=N\NC(=N)N)c1sc(-c2ccc(OCCCN3CCC4CCCCC4C3)cc2)nc1C (stereo not given)	> 64	> 64	64 (≈ 137 µM)
C/C(=N\NC(=N)N)c1sc(-c2ccc(OCCCN3CCC3)cc2)nc1C	64 (≈ 166 µM)	> 64	8 (≈ 20.7 µM)
C/C(=N\NC(=N)N)c1sc(-c2ccc(OCCCCN3CCN(C)CC3)cc2)nc1C	32 (≈ 72.1 µM)	> 64	16 (≈ 36.1 µM)
C/C(=N\NC(=N)N)c1sc(-c2ccc(C#CCCN3CCC(C)CC3)cc2)nc1C	> 64	> 64	16 (≈ 37.9 µM)
